Results published in paper PMC6459586, “Structure-Based Design of MptpB Inhibitors That Reduce Multidrug-Resistant Mycobacterium tuberculosis Survival and Infection Burden in Vivo” (Journal of Medicinal Chemistry, 2018).
“Also recorded” adds a separate entry of the source. Like-named read-outs stand apart in the source and are kept apart here.

Key:
hPTP1B = biological target: T1, hPTP1B (Homo sapiens, UniProt P18031); experiment: biochemical; details: read-out: IC50 hPTP1B (Supplementary Table 1)
T1 construct: GST (N, cleaved yes); made in house; host or cells: E. coli

hVHR = biological target: T2, hVHR (Homo sapiens, UniProt P51452); experiment: biochemical; details: read-out: IC50 hVHR (Supplementary Table 1)
T2 construct: GST (N, cleaved yes); made in house; host or cells: E. coli

[1] = system: BCG in mouse macrophages (J774); type: cell-based, Mycobacterium bovis Bacille Calmette-Guerin
[2] = system: M. tuberculosis H37Rv in human macrophages (THP1); type: cell-based
[3] = system: MDR strain (Beijing-W) in human macrophages (THP1); type: cell-based, M. tuberculosis
BCG = type: cell-based, Mycobacterium bovis Bacille Calmette-Guerin
[4] = system: PI3P on M. tuberculosis phagosomes (RAW264.7 macrophages); type: cell-based
[5] = Pharmacokinetic evaluation in guinea pigs; type: in vivo; details: male, Durkin Hartley, guinea pig, in vivo
Description: Guinea pig males (Durkin Hartley) were used to evaluate the pharmacokinetics and tissue distribution of compounds. The route of administration was either intraperitoneal (ip) or oral (po) with dosage varying from 3.5 to 8 mg kg^–1 (op) and 2.5–4 mg kg^–1 (ip). In each case 4 samples were collected per time point at 0.1, 0.5, 2, 4, and 8 h post dose for ip and 0.25, 0.5, 2, 4, and 8 h post dose for po. Compounds were prepared in 10% DMSO, 5% Cremaphor, and 85% physiological saline for IP administration or 0.5% (v/v) Tween 80, 99.5% (v/v) 0.5% methylcellulose for oral administration. Tissue samples (n = 4) from lung, liver, and kidney were collected at the end of the study and snap frozen prior to bioanalysis.

M. tuberculosis H37Rv = experiment: Acute guinea pig model of TB infection; type: in vivo; details: 28 days of treatment, oral daily, 13 100 mg/kg, RIF 50 mg/kg
M. tuberculosis = type: in vivo, guinea pig
physchem = type: physicochemical; details: pH 7.4
Description: Experimental Methods (ADME determinations).
ADME determinations for Compound 13 (data kindly supplied by LifeArc).
LogD measurements were carried out using the shake flask method. Compound was diluted from a 10 mM DMSO stock solution into an eppendorf containing equal amounts of octanol and phosphate buffered saline (PBS) to give a final concentration of 100 µM. The tubes were shaken for 12 hours, centrifuged at 10000 rpm for 10 minutes and samples taken from the octanol and PBS layers. The samples from both layers were analysed in triplicate by LC-MS/MS (Aglient Technologies G6410 series, triple quadrupole with MM-ESI ion source) using optimised multiple reaction monitoring (MRM) scans and a standard column gradient on an Acquity UPLC BEH C8 1.7 µm column, running acetonitrile and water with 0.05% acetic acid as the mobile phase. The ratios of areas of the peaks were used to calculate the Log D in accordance with the equation:
Log D = Log10(Area-TL/Area BL)
PBS pH7.4 in a filtration plate at a target concentration of 200 µM giving a final solution composition of 98:2 PBS:DMSO. […] The UV absorbance for these solutions was read across 230-400 nM at 1 nM intervals using a T ECAN Safire II plate reader and a suitable UV wavelength chosen around the UV maximum of each compound. […]

[6] = guinea pig, 50 or 100 mg/kg orally once daily for 7 days
[7] = chronic model, 28 days of treatment from day 28, oral daily, 13 100 mg/kg, RIF 50 mg/kg
[8] = chronic model, 28 days of treatment from day 28, oral daily, 13 100 mg/kg, RIF 50 mg/kg, listed as Cpd 13

T2 sequence (P51452 whole entry): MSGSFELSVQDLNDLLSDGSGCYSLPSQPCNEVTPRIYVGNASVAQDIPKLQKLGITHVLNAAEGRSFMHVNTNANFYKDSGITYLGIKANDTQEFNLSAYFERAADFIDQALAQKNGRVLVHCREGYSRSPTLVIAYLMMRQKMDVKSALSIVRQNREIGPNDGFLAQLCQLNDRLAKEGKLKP
T1 sequence (P18031 whole entry): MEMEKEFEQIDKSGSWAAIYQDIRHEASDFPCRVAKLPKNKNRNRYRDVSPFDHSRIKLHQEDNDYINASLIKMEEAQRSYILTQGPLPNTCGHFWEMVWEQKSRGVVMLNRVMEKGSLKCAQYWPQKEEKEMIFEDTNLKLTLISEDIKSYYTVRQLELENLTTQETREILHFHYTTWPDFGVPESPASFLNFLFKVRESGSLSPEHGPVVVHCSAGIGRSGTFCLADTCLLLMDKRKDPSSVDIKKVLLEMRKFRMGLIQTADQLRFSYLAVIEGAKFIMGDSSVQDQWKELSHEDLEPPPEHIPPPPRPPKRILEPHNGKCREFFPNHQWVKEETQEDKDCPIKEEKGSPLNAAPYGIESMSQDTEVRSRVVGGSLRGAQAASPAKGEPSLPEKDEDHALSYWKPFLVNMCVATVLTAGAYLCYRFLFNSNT

Cc1onc(C(=O)O)c1-c1cccc(-c2cc(Cl)c(O)c(Cl)c2)c1 [Compound 13, 4-(3′,5′-Dichloro-4′-hydroxy-3-biphenyl)-5-methylisoxazole-3-carboxylic Acid]
IC50 (hPTP1B): > 100 µM
IC50 (hVHR): > 100 µM
reduction in intracellular mycobacterial (BCG) burden [1]: up to 84%
reduction of intracellular mycobacterial burden, H37Rv [2]: up to 63%
reduction of intracellular mycobacterial burden, MDR strain (Beijing-W) [3]: up to 74%
effect on extracellular growth of BCG (BCG): does not affect extracellular bacterial growth; also recorded: not affected
duration of the peak of PI3P on phagosomes [4]: up to 12 min
half-life ([5]; ip, 4 mg/kg, IP, dose mg/kg: 13 4, 5 2.5, 8 1.25, 9 2.5): 1.4 h
half-life ([5]; po, 8 mg/kg, oral, dose mg/kg: 13 8, 5 5, 8 3.5, 9 5): 5 h
Lungs infection burden, average (M. tuberculosis H37Rv): 5.9 log CFU
Lungs log reduction relative to vehicle (M. tuberculosis H37Rv): 0.9 log
Spleen infection burden, average (M. tuberculosis H37Rv): 5.6 log CFU
Spleen log reduction relative to vehicle (M. tuberculosis H37Rv): 0 log
Lungs infection burden, average (M. tuberculosis; [7]): 4.7 log CFU
Lungs log reduction relative to vehicle (M. tuberculosis; [7]): at least 1 log
Spleen infection burden, average (M. tuberculosis; [7]): 4.2 log CFU
Spleen log reduction relative to vehicle (M. tuberculosis; [7]): at least 1 log
Lungs log reduction relative to vehicle (M. tuberculosis; [8]): 1.0 log
Spleen log reduction relative to vehicle (M. tuberculosis; [8]): 1.0 log
Lungs weight % change relative to Vehicle (M. tuberculosis; guinea pig, in vivo): -19%
Lungs weight, average (M. tuberculosis; guinea pig, in vivo): 4.4 g
Spleen weight % change relative to Vehicle (M. tuberculosis; guinea pig, in vivo): -19%
Spleen weight, average (M. tuberculosis; guinea pig, in vivo): 2.1 g
histopathology of lungs and spleens (M. tuberculosis; guinea pig, in vivo, 100 mg/kg): improvement in the pathology
logD (physchem): 4
adverse drug effects (tolerability) [6]: no adverse drug effects
weight increases during the tolerability trial [6]: > 5%
